# Species: Rattus norvegicus
# Experiment: Open TG-GATES - Regimen: Daily Repeat
# Assay type: toxicity, organism-based, Sprague-Dawley
# Set-up: regimen Daily Repeat, gender Male, age 6 weeks
# Conditions: in vivo, po, 60 mg/kg, route gavage, dose level Low; for APTT / Bas / Eos / Fbg / Hb / Ht / Lym / MCH / MCHC / MCV / Mono / Neu / PT / Plat / RBC / Ret / WBC: tissue Blood; for KIDNEY_L / KIDNEY_R / KIDNEY_TOTAL: tissue Kidney; for LIVER: tissue Liver; for A/G / ALP / ALT / AST / BUN / CRE / Ca / Cl / DBIL / GLC / IP / K / LDH / Na / PL / RALB / TBIL / TC / TG / TP / gamma-GTP: tissue Plasma
smiles,measurement,setting,value
C[C@](N)(Cc1ccc(O)c(O)c1)C(=O)O [METHYLDOPA],TERMINAL_BW,"72 h, time 3 day",205.8 g
same,APTT,"72 h, time 3 day",17.3 s
same,Bas,"72 h, time 3 day",0%
same,Eos,"72 h, time 3 day",1%
same,Fbg,"72 h, time 3 day",249 mg/dL
same,Hb,"72 h, time 3 day",13.5 g/dL
same,Ht,"72 h, time 3 day",39.1%
same,Lym,"72 h, time 3 day",77.8%
same,MCH,"72 h, time 3 day",21.6 pg
same,MCHC,"72 h, time 3 day",34.4%
same,MCV,"72 h, time 3 day",62.9 fL
same,Mono,"72 h, time 3 day",2.8%
same,Neu,"72 h, time 3 day",17.8%
same,PT,"72 h, time 3 day",12.6 s
same,Plat,"72 h, time 3 day",102.6 x10_4/uL
same,RBC,"72 h, time 3 day",623.2 x10_4/ul
same,Ret,"72 h, time 3 day",7.7%
same,WBC,"72 h, time 3 day",71 x10_2/uL
same,KIDNEY_L,"72 h, time 3 day",0.9 g
same,KIDNEY_R,"72 h, time 3 day",0.9 g
same,KIDNEY_TOTAL,"72 h, time 3 day",1.8 g
same,LIVER,"72 h, time 3 day",8.9 g
same,A/G,"72 h, time 3 day",0.9
same,ALP,"72 h, time 3 day",1905.6 IU/L
same,ALT,"72 h, time 3 day",60.6 IU/L
same,AST,"72 h, time 3 day",79.2 IU/L
same,BUN,"72 h, time 3 day",13.6 mg/dL
same,CRE,"72 h, time 3 day",0.2 mg/dL
same,Ca,"72 h, time 3 day",11.1 mg/dL
same,Cl,"72 h, time 3 day",106.8 meq/L
same,DBIL,"72 h, time 3 day",0.01 mg/dL
same,GLC,"72 h, time 3 day",172.6 mg/dL
same,IP,"72 h, time 3 day",7.4 mg/dL
same,K,"72 h, time 3 day",4 meq/L
same,LDH,"72 h, time 3 day",59.2 IU/L
same,Na,"72 h, time 3 day",144 meq/L
same,PL,"72 h, time 3 day",130 mg/dL
same,RALB,"72 h, time 3 day",2.6 g/dL
same,TBIL,"72 h, time 3 day",0.064 mg/dL
same,TC,"72 h, time 3 day",76.8 mg/dL
same,TG,"72 h, time 3 day",51.8 mg/dL
same,TP,"72 h, time 3 day",5.4 g/dL
same,gamma-GTP,"72 h, time 3 day",1 IU/L
same,TERMINAL_BW,"[…], time 7 day",237.3 g
same,TERMINAL_BW,"[…], time 14 day",281.9 g
same,TERMINAL_BW,"[…], time 28 day",389.2 g
same,APTT,"[…], time 7 day",16.2 s
same,Bas,"[…], time 7 day",0%
same,Eos,"[…], time 7 day",1%
same,Fbg,"[…], time 7 day",269.2 mg/dL
same,Hb,"[…], time 7 day",13.7 g/dL
same,Ht,"[…], time 7 day",39.9%
same,Lym,"[…], time 7 day",77.8%
same,MCH,"[…], time 7 day",21.8 pg
same,MCHC,"[…], time 7 day",34.3%
same,MCV,"[…], time 7 day",63.4 fL
same,Mono,"[…], time 7 day",3.2%
same,Neu,"[…], time 7 day",17.6%
same,PT,"[…], time 7 day",12.1 s
same,Plat,"[…], time 7 day",124.4 x10_4/uL
same,RBC,"[…], time 7 day",629 x10_4/ul
same,Ret,"[…], time 7 day",5.2%
same,WBC,"[…], time 7 day",68.8 x10_2/uL
same,APTT,"[…], time 14 day",16.9 s
same,Bas,"[…], time 14 day",0%
same,Eos,"[…], time 14 day",1%
same,Fbg,"[…], time 14 day",302.6 mg/dL
same,Hb,"[…], time 14 day",13.8 g/dL
same,Ht,"[…], time 14 day",39.6%
same,Lym,"[…], time 14 day",80.6%
same,MCH,"[…], time 14 day",20.5 pg
same,MCHC,"[…], time 14 day",34.9%
same,MCV,"[…], time 14 day",59 fL
same,Mono,"[…], time 14 day",2.6%
same,Neu,"[…], time 14 day",15.4%
same,PT,"[…], time 14 day",14 s
same,Plat,"[…], time 14 day",109.7 x10_4/uL
same,RBC,"[…], time 14 day",672.8 x10_4/ul
same,Ret,"[…], time 14 day",4.4%
same,WBC,"[…], time 14 day",64.6 x10_2/uL
same,APTT,"[…], time 28 day",18.8 s
same,Bas,"[…], time 28 day",0%
same,Eos,"[…], time 28 day",1.2%
same,Fbg,"[…], time 28 day",289 mg/dL
same,Hb,"[…], time 28 day",15 g/dL
same,Ht,"[…], time 28 day",42.9%
same,Lym,"[…], time 28 day",81.2%
same,MCH,"[…], time 28 day",19.7 pg
same,MCHC,"[…], time 28 day",35%
same,MCV,"[…], time 28 day",56.4 fL
same,Mono,"[…], time 28 day",2.2%
same,Neu,"[…], time 28 day",15%
same,PT,"[…], time 28 day",14 s
same,Plat,"[…], time 28 day",108.7 x10_4/uL
same,RBC,"[…], time 28 day",760.2 x10_4/ul
same,Ret,"[…], time 28 day",2.5%
same,WBC,"[…], time 28 day",77.4 x10_2/uL
same,KIDNEY_L,"[…], time 7 day",1 g
same,KIDNEY_R,"[…], time 7 day",1 g
same,KIDNEY_TOTAL,"[…], time 7 day",2 g
same,KIDNEY_L,"[…], time 14 day",1.1 g
same,KIDNEY_R,"[…], time 14 day",1.1 g
same,KIDNEY_TOTAL,"[…], time 14 day",2.2 g
same,KIDNEY_L,"[…], time 28 day",1.3 g
same,KIDNEY_R,"[…], time 28 day",1.3 g
same,KIDNEY_TOTAL,"[…], time 28 day",2.6 g
same,LIVER,"[…], time 7 day",10.4 g
same,LIVER,"[…], time 14 day",12.2 g
same,LIVER,"[…], time 28 day",15.2 g
same,A/G,"[…], time 7 day",0.9
same,ALP,"[…], time 7 day",1395.8 IU/L
same,ALT,"[…], time 7 day",43.4 IU/L
same,AST,"[…], time 7 day",69.4 IU/L
same,BUN,"[…], time 7 day",13.4 mg/dL
same,CRE,"[…], time 7 day",0.2 mg/dL
same,Ca,"[…], time 7 day",11 mg/dL
same,Cl,"[…], time 7 day",106.8 meq/L
same,DBIL,"[…], time 7 day",0.008 mg/dL
same,GLC,"[…], time 7 day",184 mg/dL
same,IP,"[…], time 7 day",7.2 mg/dL
same,K,"[…], time 7 day",4.6 meq/L
same,LDH,"[…], time 7 day",65.6 IU/L
same,Na,"[…], time 7 day",145 meq/L
same,PL,"[…], time 7 day",138.8 mg/dL
same,RALB,"[…], time 7 day",2.7 g/dL
same,TBIL,"[…], time 7 day",0.066 mg/dL
same,TC,"[…], time 7 day",87.4 mg/dL
same,TG,"[…], time 7 day",51.2 mg/dL
same,TP,"[…], time 7 day",5.9 g/dL
same,gamma-GTP,"[…], time 7 day",1 IU/L
same,A/G,"[…], time 14 day",0.9
same,ALP,"[…], time 14 day",1372.2 IU/L
same,ALT,"[…], time 14 day",40.6 IU/L
same,AST,"[…], time 14 day",61.6 IU/L
same,BUN,"[…], time 14 day",13.6 mg/dL
same,CRE,"[…], time 14 day",0.2 mg/dL
same,Ca,"[…], time 14 day",11.3 mg/dL
same,Cl,"[…], time 14 day",106.2 meq/L
same,DBIL,"[…], time 14 day",0.01 mg/dL
same,GLC,"[…], time 14 day",176.8 mg/dL
same,IP,"[…], time 14 day",6.6 mg/dL
same,K,"[…], time 14 day",4.3 meq/L
same,LDH,"[…], time 14 day",53 IU/L
same,Na,"[…], time 14 day",142 meq/L
same,PL,"[…], time 14 day",155.8 mg/dL
same,RALB,"[…], time 14 day",2.8 g/dL
same,TBIL,"[…], time 14 day",0.058 mg/dL
same,TC,"[…], time 14 day",89 mg/dL
same,TG,"[…], time 14 day",85.2 mg/dL
same,TP,"[…], time 14 day",5.9 g/dL
same,gamma-GTP,"[…], time 14 day",1 IU/L
same,A/G,"[…], time 28 day",0.8
same,ALP,"[…], time 28 day",1102.4 IU/L
same,ALT,"[…], time 28 day",49.8 IU/L
same,AST,"[…], time 28 day",65.6 IU/L
same,BUN,"[…], time 28 day",16 mg/dL
same,CRE,"[…], time 28 day",0.2 mg/dL
same,Ca,"[…], time 28 day",11.1 mg/dL
same,Cl,"[…], time 28 day",106.6 meq/L
same,DBIL,"[…], time 28 day",0.018 mg/dL
same,GLC,"[…], time 28 day",180.2 mg/dL
same,IP,"[…], time 28 day",5.8 mg/dL
same,K,"[…], time 28 day",4.2 meq/L
same,LDH,"[…], time 28 day",47.6 IU/L
same,Na,"[…], time 28 day",143.6 meq/L
same,PL,"[…], time 28 day",147 mg/dL
same,RALB,"[…], time 28 day",2.7 g/dL
same,TBIL,"[…], time 28 day",0.058 mg/dL
same,TC,"[…], time 28 day",77 mg/dL
same,TG,"[…], time 28 day",101.6 mg/dL
same,TP,"[…], time 28 day",6.1 g/dL
same,gamma-GTP,"[…], time 28 day",1 IU/L

# — ChEMBL document CHEMBL3885861, “Open TG-GATES”
